Results from ChEMBL document CHEMBL1201862, “PubChem BioAssay data set” (2004).
Calls of active or inactive are those of the source. For most assays here, no stated cut-off is given here; in the data, actives have a measured IC50 and inactives only a lower limit.

What was measured:
[1] = biological target: T1, RNA-binding protein pos-1 (Caenorhabditis elegans, UniProt G5EF15); assay: inhibitors of POS-1/mex-3 RNA binding, dose response, biochemical, fluorescence polarization (AID 1964);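 further: purified POS-1 fused to maltose binding protein made in E. coli; potency of compounds blocking POS-1 binding to fluorescent RNA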
T1 sequence (G5EF15 whole entry): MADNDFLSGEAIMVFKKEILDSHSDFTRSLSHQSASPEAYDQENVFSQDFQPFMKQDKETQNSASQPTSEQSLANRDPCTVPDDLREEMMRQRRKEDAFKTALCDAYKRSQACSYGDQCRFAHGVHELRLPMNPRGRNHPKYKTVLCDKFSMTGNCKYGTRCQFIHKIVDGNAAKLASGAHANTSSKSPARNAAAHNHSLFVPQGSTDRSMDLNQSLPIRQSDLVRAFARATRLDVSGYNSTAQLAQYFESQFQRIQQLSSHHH

Ephrin type-A receptor 4 = Ephrin type-A receptor 4 (Mus musculus, UniProt Q03137); assay: inhibitors of EphA4 binding to KYL peptide, primary screen, biochemical, colorimetric, mouse EphA4 (AID 689); format: functional
Chain of Ephrin type-A receptor 4 (Q03137 whole entry): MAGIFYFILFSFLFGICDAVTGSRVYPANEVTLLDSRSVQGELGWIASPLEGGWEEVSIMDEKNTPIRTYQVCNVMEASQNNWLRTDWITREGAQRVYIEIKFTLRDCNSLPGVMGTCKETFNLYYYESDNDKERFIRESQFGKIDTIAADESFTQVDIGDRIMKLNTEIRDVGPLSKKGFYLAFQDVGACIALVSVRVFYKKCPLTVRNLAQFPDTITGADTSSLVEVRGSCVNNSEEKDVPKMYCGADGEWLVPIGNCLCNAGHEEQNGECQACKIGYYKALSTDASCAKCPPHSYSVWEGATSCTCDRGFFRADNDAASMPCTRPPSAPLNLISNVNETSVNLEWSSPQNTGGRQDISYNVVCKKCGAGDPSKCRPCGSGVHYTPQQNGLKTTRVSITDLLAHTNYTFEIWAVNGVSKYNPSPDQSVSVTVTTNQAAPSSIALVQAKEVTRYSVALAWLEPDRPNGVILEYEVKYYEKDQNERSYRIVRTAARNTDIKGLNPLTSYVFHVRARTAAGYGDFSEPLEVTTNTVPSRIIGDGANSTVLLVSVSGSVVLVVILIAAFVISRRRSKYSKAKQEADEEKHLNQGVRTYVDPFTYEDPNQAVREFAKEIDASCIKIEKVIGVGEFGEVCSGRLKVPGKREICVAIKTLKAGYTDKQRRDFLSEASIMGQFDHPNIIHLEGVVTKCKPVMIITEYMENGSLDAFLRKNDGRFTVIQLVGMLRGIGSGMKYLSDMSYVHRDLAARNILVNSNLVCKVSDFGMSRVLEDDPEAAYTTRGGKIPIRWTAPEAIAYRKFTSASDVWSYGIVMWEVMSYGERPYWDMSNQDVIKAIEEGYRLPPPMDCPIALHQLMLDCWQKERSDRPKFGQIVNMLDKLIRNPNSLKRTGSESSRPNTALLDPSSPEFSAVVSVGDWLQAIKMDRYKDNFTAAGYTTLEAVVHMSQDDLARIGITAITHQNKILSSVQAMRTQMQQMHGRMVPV

[2] = biological target: Voltage-dependent T-type calcium channel subunit alpha-1H (Homo sapiens, UniProt O95180); format: functional;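 further: channel activity triggered by adding a high calcium stimulation buffer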
Chain of Voltage-dependent T-type calcium channel subunit alpha-1H (O95180 whole entry): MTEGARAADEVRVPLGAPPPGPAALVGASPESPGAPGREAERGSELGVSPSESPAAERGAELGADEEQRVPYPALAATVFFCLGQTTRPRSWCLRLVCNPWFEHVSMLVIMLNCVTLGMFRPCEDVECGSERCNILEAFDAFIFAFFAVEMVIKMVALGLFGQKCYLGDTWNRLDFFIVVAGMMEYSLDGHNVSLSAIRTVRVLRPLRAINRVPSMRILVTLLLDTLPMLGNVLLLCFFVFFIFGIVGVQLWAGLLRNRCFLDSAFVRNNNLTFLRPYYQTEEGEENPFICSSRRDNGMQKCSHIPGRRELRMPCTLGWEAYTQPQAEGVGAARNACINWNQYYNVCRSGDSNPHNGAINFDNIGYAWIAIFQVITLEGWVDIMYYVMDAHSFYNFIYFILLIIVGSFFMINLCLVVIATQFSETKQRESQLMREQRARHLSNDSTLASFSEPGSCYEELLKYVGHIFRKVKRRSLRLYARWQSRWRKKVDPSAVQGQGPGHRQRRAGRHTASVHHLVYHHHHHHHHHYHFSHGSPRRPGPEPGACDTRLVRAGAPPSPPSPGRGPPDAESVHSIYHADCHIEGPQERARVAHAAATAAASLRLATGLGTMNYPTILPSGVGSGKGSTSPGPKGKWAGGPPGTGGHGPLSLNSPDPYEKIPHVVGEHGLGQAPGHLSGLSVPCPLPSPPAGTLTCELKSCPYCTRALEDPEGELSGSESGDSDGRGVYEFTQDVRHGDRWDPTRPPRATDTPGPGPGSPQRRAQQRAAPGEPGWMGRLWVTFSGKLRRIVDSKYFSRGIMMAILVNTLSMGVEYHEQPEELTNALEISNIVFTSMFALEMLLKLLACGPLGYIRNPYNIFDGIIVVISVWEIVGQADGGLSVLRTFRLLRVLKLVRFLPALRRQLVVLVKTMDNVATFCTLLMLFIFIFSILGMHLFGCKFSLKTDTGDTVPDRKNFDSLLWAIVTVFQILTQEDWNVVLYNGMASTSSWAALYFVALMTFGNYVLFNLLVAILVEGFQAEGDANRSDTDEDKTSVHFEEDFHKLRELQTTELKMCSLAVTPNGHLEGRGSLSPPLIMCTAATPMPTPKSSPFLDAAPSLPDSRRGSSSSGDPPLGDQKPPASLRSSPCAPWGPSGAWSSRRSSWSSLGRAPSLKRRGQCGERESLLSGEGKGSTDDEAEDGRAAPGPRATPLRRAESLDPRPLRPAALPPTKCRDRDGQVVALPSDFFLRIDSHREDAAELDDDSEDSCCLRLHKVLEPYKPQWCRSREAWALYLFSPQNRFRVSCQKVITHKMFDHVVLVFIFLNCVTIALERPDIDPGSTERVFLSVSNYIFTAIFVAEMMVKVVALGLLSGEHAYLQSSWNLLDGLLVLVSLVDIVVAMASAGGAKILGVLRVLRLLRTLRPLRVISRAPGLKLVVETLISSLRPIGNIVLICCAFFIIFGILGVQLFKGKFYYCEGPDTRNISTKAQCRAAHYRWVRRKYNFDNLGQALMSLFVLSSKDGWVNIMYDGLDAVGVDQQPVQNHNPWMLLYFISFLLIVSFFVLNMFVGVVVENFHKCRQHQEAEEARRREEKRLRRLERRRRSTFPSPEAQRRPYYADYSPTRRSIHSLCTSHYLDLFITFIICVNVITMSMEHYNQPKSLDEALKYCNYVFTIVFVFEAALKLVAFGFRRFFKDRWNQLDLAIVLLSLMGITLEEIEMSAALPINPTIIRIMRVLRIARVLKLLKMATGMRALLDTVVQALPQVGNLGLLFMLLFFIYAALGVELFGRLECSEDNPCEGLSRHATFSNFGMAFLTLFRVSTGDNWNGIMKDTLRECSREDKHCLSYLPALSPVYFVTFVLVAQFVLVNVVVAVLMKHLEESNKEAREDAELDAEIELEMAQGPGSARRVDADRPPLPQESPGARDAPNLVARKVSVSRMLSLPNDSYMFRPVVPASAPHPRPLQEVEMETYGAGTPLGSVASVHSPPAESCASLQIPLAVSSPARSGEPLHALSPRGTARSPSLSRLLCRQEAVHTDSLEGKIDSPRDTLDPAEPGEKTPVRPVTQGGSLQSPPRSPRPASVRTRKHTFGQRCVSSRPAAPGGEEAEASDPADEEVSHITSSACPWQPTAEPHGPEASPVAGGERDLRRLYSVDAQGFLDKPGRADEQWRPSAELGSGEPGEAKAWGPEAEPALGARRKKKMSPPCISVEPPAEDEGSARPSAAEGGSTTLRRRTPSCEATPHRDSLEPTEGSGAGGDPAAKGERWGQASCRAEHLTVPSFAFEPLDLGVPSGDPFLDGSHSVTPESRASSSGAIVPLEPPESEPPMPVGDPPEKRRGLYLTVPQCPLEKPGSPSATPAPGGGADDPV

[3] = biological target: T2, Zinc finger protein mex-5 (Caenorhabditis elegans, UniProt Q9XUB2); assay: MEX-5/TCR-2 RNA interaction inhibitors, dose response, biochemical, C. elegans, fluorescence polarization (AID 1960)
T2 sequence (Q9XUB2 whole entry): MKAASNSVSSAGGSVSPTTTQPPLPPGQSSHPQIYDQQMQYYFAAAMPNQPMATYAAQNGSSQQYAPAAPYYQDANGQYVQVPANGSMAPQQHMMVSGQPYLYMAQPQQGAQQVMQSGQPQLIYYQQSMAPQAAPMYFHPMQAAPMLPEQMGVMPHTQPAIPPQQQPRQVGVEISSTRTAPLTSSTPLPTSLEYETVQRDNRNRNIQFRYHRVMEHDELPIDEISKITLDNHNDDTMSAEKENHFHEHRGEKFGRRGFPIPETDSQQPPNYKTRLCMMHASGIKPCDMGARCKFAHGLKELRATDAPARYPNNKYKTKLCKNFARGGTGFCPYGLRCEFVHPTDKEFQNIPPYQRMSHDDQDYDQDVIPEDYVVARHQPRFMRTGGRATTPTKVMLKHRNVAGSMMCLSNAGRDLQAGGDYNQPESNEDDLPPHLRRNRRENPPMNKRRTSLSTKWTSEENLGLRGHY

[4] = biological target: T3, Endoribonuclease toxin MazF (Escherichia coli K-12, UniProt P0AE70); assay: MazF toxin RNase activators, dose response, biochemical, fluorescence, single-stranded RNA substrate, uHTS hits (AID 588481); format: functional
T3 sequence (P0AE70 whole entry): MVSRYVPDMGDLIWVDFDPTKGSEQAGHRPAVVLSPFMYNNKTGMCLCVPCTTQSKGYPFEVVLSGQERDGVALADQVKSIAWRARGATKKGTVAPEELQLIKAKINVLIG

[5] = biological target: T3, Endoribonuclease toxin MazF; assay: fluorescent RNA oligo signal without MazF, dose response, counter-screen for MazEF activator project, biochemical, fluorescence, single-stranded RNase substrate (AID 588502); format: functional
[6] = biological target: T4, Corticotropin-releasing factor receptor 2/Corticotropin-releasing factor-binding protein (Homo sapiens, UniProt P24387+Q13324); assay: activators of CRF receptor 2 with binding protein – uHTS hits, confirmation (AID 602473); format: functional; conditions: read-out: EC50_Mean
T4 sequence (Q13324 whole entry): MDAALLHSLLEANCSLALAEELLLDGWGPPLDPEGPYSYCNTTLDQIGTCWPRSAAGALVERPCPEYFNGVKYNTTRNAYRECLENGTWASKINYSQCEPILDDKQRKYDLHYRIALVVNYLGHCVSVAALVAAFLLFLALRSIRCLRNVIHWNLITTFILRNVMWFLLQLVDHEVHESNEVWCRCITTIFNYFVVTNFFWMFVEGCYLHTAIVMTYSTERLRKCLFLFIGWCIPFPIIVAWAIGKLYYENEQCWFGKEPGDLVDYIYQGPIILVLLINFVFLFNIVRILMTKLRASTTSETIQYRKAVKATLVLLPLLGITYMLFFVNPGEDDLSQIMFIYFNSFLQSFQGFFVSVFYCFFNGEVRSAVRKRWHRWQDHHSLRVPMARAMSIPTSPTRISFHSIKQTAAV
T4 sequence (P24387 whole entry): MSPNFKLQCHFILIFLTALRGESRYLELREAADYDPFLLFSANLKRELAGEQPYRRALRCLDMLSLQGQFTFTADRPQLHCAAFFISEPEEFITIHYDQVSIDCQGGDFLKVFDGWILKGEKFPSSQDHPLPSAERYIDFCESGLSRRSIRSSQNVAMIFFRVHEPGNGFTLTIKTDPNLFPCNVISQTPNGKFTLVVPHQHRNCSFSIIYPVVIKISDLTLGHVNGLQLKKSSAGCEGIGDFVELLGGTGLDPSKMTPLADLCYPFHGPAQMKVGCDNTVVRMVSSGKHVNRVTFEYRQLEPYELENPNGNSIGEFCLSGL

[7] = biological target: T5, Sentrin-specific protease 6 (Homo sapiens, UniProt Q9GZR1); assay: SENP6 protease inhibitors, SAR follow-up, biochemical, luminescence, set 2 (AID 588598); format: functional
T5 sequence (Q9GZR1 whole entry): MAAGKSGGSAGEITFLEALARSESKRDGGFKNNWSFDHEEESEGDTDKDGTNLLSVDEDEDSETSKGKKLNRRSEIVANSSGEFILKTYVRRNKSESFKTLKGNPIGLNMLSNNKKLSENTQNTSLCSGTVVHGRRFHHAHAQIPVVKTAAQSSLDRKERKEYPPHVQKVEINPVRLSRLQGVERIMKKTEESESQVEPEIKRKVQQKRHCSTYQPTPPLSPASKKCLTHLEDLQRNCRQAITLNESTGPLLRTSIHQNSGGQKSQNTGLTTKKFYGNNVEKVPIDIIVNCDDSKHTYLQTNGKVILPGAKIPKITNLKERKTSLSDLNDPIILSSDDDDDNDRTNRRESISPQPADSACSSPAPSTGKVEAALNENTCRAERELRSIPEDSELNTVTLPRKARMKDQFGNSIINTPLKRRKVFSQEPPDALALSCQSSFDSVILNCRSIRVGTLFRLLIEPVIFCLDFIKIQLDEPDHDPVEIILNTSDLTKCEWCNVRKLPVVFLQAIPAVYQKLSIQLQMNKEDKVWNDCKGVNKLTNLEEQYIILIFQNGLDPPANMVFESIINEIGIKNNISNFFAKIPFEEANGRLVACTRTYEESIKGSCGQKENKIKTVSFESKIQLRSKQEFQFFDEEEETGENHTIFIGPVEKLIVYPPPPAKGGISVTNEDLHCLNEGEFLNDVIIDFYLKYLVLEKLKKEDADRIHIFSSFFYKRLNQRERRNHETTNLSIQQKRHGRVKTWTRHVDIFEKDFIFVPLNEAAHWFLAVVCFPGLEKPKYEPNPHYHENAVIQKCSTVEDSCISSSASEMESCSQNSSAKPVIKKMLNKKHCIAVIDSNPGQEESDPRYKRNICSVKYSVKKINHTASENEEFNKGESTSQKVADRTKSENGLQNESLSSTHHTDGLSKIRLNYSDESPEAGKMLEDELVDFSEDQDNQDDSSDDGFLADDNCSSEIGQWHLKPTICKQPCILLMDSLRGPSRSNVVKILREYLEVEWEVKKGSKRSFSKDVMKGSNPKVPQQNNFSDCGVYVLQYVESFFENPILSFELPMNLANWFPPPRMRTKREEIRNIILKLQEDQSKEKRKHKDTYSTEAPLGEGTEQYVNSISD

Caspase-3 [8] = biological target: T6, Caspase-3 (Homo sapiens, UniProt P42574); assay: caspase-3 inhibitors as off-family protease, SAR follow-up, selectivity assay for SENP protease inhibitor project, biochemical, luminescence, set 2 (AID 588599); format: functional
T6 sequence (P42574 whole entry): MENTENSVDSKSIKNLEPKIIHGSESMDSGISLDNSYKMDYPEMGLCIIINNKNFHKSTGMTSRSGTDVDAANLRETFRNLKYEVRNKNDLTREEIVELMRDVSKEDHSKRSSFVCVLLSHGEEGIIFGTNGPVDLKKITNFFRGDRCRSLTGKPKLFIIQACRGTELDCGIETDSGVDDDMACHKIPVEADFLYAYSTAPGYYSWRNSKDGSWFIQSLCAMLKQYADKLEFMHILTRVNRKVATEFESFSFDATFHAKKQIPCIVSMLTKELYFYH

Caspase-3 [9] = biological target: T6, Caspase-3; assay: SAR Analysis of small molecule inhibitors of Sentrin-specific proteases (SENPs) using a Caspase-3 Selectivity assay. [Related pubchem assays (depositor defined):AID2540, AID2599, AID434973, AID489001]; format: functional
[10] = biological target: T7, Sentrin-specific protease 7 (Homo sapiens, UniProt Q9BQF6); assay: SENP7 protease inhibitors, SAR follow-up, biochemical, luminescence, set 2 (AID 588600); format: functional
T7 sequence (Q9BQF6 whole entry): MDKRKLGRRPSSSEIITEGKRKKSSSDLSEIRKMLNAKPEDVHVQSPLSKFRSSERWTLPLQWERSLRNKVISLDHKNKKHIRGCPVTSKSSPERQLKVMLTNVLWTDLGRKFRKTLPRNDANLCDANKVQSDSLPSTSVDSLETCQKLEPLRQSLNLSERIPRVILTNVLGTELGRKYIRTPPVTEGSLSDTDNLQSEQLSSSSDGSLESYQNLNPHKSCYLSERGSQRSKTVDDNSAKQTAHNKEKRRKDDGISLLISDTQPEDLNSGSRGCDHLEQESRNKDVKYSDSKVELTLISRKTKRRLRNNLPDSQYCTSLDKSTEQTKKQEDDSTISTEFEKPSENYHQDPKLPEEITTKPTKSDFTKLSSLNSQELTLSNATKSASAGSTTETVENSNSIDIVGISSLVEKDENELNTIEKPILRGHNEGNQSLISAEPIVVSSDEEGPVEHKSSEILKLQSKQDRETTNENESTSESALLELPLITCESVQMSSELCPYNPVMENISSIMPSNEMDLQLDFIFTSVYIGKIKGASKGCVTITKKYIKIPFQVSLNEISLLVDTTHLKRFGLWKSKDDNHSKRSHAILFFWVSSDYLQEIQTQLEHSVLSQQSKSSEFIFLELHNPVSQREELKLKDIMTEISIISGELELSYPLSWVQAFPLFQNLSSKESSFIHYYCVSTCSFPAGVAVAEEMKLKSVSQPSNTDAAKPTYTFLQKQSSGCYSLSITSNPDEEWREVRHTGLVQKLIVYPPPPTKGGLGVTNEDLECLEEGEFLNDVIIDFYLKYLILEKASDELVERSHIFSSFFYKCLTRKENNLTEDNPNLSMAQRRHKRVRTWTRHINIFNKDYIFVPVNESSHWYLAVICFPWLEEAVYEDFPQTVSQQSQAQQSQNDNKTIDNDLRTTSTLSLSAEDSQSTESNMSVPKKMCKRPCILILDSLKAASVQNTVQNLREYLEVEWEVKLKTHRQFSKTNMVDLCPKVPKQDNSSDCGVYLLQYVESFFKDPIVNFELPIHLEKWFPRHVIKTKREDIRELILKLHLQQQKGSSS

[11] = biological target: T7, Sentrin-specific protease 7; assay: SENP7 protease inhibitors, SAR follow-up, biochemical, luminescence (AID 504497); format: functional
[12] = biological target: T5, Sentrin-specific protease 6; assay: SAR Analysis of small molecule inhibitors of Sentrin-specific protease 6 (SENP6) using a Luminescent assay. [Related pubchem assays (depositor defined):AID2582, AID2599]; format: functional
[13] = biological target: T8, Sentrin-specific protease 8 (Homo sapiens, UniProt Q96LD8); assay: SENP8 protease inhibitors, SAR follow-up, biochemical, luminescence (AID 504501); format: functional
T8 sequence (Q96LD8 whole entry): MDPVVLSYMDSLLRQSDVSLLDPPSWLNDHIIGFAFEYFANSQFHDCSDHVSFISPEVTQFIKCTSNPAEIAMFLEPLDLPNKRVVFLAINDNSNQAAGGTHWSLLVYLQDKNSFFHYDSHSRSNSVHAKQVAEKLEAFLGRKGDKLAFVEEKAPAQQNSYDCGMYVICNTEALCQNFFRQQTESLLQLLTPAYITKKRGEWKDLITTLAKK

[14] = biological target: T8, Sentrin-specific protease 8; assay: SENP8 protease inhibitors, SAR follow-up, biochemical, luminescence, set 2 (AID 588601); format: functional
CHO = assay: cytotoxicity in TLR9-MyD88 CHO cells, dose response, cytotoxicity control for TLR9-MyD88 binding inhibitor project, cell-based, luminescence (AID 588339); format: functional, hamster; conditions: Cricetulus griseus;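 further: CHO cells stably coexpressing TLR9 and MyD88 fusions from primary screen; compound exposure lasted 48 hours before viability readout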
Beta Lactamase = Beta Lactamase (Pseudomonas aeruginosa, UniProt Q932Y6); assay: beta-lactamase reporter inhibitor potency, dose response, artefact control for TLR9-MyD88 binding inhibitor project, BLA reporter cells, FRET fluorescence (AID 588341); format: cell-based;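 further: cell based assay in CHO-K1 cells stably expressing beta-lactamase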
Chain of Beta Lactamase (Q932Y6 whole entry): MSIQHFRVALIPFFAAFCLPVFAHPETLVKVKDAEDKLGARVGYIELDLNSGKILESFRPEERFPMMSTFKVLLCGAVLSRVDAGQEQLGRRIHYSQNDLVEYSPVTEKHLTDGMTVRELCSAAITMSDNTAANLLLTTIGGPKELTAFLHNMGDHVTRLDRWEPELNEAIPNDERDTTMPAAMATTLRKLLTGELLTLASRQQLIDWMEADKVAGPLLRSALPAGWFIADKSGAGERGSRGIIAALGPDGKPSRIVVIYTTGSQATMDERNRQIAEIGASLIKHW

CC(C)(C)C(=O)c1sc2nc(-c3cccs3)cc(C(F)(F)F)c2c1N
EC50 [1]: > 300 µM (not active) | IC50 (Ephrin type-A receptor 4): 9.9 µM (active) | EC50 [2]: 2.59 µM (active) | EC50 [3]: > 300 µM (inconclusive) | EC50 [4]: > 99 µM (inactive) | EC50 [5]: > 99 µM (inactive) | EC50 [6]: 18 µM (active)

Fc1ccc(/C=C/c2noc(-c3c(F)cccc3F)n2)cc1
IC50 [7]: 4.72 µM (active) | IC50 (Caspase-3 [8]): 30.8 µM (active) | IC50 (Caspase-3 [9]): 34 µM (active) | IC50 [10]: 5.86 µM (active) | IC50 [11]: 11 µM (active) | IC50 [12]: > 99 µM (inactive) | IC50 [13]: > 99 µM (inactive) | IC50 [14]: 4.97 µM (active)

O=C1c2cccc3c(N4CCCCC4)ccc(c23)C(=O)N1c1ccccc1O
IC50 (CHO): > 49.8 µM (inactive) | IC50 (Beta Lactamase): 7.63 µM (active)
